Measured values published in PubChem BioAssay AID330 (DTP/NCI, 2004).
“And” between values parts separate entries of the source, which are not always exact repeats. Equal entries are not always repeated. Inconclusive results and toxic doses are left out. Rule for the calls: active = survival T/C of 150% or more; inactive = T/C below 125% in these data.

Test system: P388 leukemia ip, CD2F1 mice, survival T/C
Assay: NCI In Vivo Anticancer Drug Screen. Data for tumor model P388 Leukemia (intraperitoneal) in CD2F1 (CDF1) mice
Settings: endpoint: median survival time, higher = longer survival
In short: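 Mice carrying the transplanted tumor received test compound or vehicle. Survival was recorded in each group, and the value is the treated-group measurement divided by that of the vehicle-treated control group.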

[1] = dose: 60.0 mg/kg/injection, schedule: Q01DX005 (ip), vehicle: saline with Tween-80
[2] = dose: 120.0 mg/kg/injection, schedule: Q01DX005 (ip), vehicle: saline with Tween-80
[3] = dose: 240.0 mg/kg/injection, schedule: Q01DX005 (ip), vehicle: saline with Tween-80
[4] = dose: 100.0 mg/kg/injection, schedule: Q01DX001 (ip), vehicle: Klucel (hydroxypropylcellulose) (HPC)
[5] = dose: 200.0 mg/kg/injection, schedule: Q01DX001 (ip), vehicle: Klucel (hydroxypropylcellulose) (HPC)
[6] = dose: 400.0 mg/kg/injection, schedule: Q01DX001 (ip), vehicle: Klucel (hydroxypropylcellulose) (HPC)
[7] = dose: 50.0 mg/kg/injection, schedule: Q01DX009 (ip), vehicle: saline
[8] = dose: 200.0 mg/kg/injection, schedule: Q01DX009 (ip), vehicle: saline
[9] = dose: 12.5 mg/kg/injection, schedule: Q01DX009 (ip), vehicle: Klucel (hydroxypropylcellulose) (HPC)

Measured: T/C

COc1cc2c(c(OC)c1OC)-c1cc3c(cc1CC1COC(=O)N1C2)OCO3 (stereo not given)
inactive: dose: 15.0 mg/kg/injection, schedule: Q01DX005 (ip), vehicle: Klucel (hydroxypropylcellulose) (HPC) 90 % of control and 94 % of control | dose: 30.0 mg/kg/injection, schedule: Q01DX005 (ip), vehicle: Klucel (hydroxypropylcellulose) (HPC) 100 % of control and 105 % of control | dose: 60.0 mg/kg/injection, schedule: Q01DX005 (ip), vehicle: Klucel (hydroxypropylcellulose) (HPC) 103 % of control and 116 % of control and 96 % of control

Cc1c(NC(=O)Nc2ccc(F)cc2[N+](=O)[O-])c(=O)n(-c2ccccc2)n1C
inactive: dose: 50.0 mg/kg/injection, schedule: Q01DX009 (ip), vehicle: saline with Tween-80 109 % of control | dose: 100.0 mg/kg/injection, schedule: Q01DX009 (ip), vehicle: saline with Tween-80 112 % of control | dose: 200.0 mg/kg/injection, schedule: Q01DX009 (ip), vehicle: saline with Tween-80 97 % of control

COC(=O)C1=C/CCCN(C(c2ccccc2)c2ccccc2)/C=C\1C(=O)OC
inactive: dose: 100.0 mg/kg/injection, schedule: Q01DX001 (ip), vehicle: saline 99 % of control | dose: 200.0 mg/kg/injection, schedule: Q01DX001 (ip), vehicle: saline 91 % of control | dose: 400.0 mg/kg/injection, schedule: Q01DX001 (ip), vehicle: saline 95 % of control

COc1nc2nc(SC(CC(=O)O)C(=O)c3ccc(Cl)cc3)[nH]c2c2ccccc12 (stereo not given)
inactive: [1] 97 % of control | [2] 95 % of control | [3] 92 % of control

CC(=O)c1cc2c(cc1Br)OCO2
inactive: [4] 100 % of control | [5] 102 % of control | [6] 108 % of control

O=C1CC(=O)N2C=CC=CC2=N1
inactive: [7] 101 % of control | [8] 91 % of control

COC(=O)C1=C(C(=O)OC)[C@@H]2CCC[C@H]1[C@H]1[C@@H]2N=NN1c1ccccc1
inactive: dose: 50.0 mg/kg/injection, schedule: Q01DX005 (ip), vehicle: saline with Tween-80 100 % of control | dose: 100.0 mg/kg/injection, schedule: Q01DX005 (ip), vehicle: saline with Tween-80 98 % of control | dose: 200.0 mg/kg/injection, schedule: Q01DX005 (ip), vehicle: saline with Tween-80 100 % of control

Clc1nc2nc3n(c2nc1Cl)CCC3(Br)Br
inactive: [1] 97 % of control | [2] 109 % of control | [3] 103 % of control

CCCCCCCCCCCCCCCCS(=O)CC(O)COC(=O)c1ccc(C(=O)OCC(O)CS(=O)CCCCCCCCCCCCCCCC)cc1 (stereo not given)
inactive: dose: 25.0 mg/kg/injection, schedule: Q01DX009 (ip), vehicle: other 104 % of control | dose: 50.0 mg/kg/injection, schedule: Q01DX009 (ip), vehicle: other 114 % of control | dose: 100.0 mg/kg/injection, schedule: Q01DX009 (ip), vehicle: other 122 % of control

Cc1cc(N2C(=O)CCSC2=S)ccc1Br
inactive: dose: 50.0 mg/kg/injection, schedule: Q01DX009 (ip), vehicle: suspension in saline 87 % of control | dose: 100.0 mg/kg/injection, schedule: Q01DX009 (ip), vehicle: suspension in saline 104 % of control | dose: 200.0 mg/kg/injection, schedule: Q01DX009 (ip), vehicle: suspension in saline 116 % of control

COCc1c(-c2ccccc2)nn(O)c1-c1ccccc1
inactive: dose: 50.0 mg/kg/injection, schedule: Q01DX001 (ip), vehicle: saline with Tween-80 103 % of control | dose: 100.0 mg/kg/injection, schedule: Q01DX001 (ip), vehicle: saline with Tween-80 96 % of control | dose: 200.0 mg/kg/injection, schedule: Q01DX001 (ip), vehicle: saline with Tween-80 87 % of control

CCCOc1ccc(C(N)=S)cc1
inactive: [9] 98 % of control and 103 % of control | dose: 25.0 mg/kg/injection, schedule: Q01DX009 (ip), vehicle: Klucel (hydroxypropylcellulose) (HPC) 101 % of control and 105 % of control | dose: 50.0 mg/kg/injection, schedule: Q01DX009 (ip), vehicle: Klucel (hydroxypropylcellulose) (HPC) 115 % of control and 120 % of control and 96 % of control | dose: 100.0 mg/kg/injection, schedule: Q01DX009 (ip), vehicle: Klucel (hydroxypropylcellulose) (HPC) 86 % of control

Cc1ccc(-c2nc3n(c2C=O)CCS3)cc1
inactive: [4] 112 % of control | [5] 106 % of control | [6] 98 % of control

CCOC(=O)C(C(=O)OCC)=C(C)C
inactive: dose: 21.3 mg/kg/injection, schedule: Q01DX009 (ip), vehicle: saline with Tween-80 93 % of control | dose: 42.5 mg/kg/injection, schedule: Q01DX009 (ip), vehicle: saline with Tween-80 90 % of control | dose: 85.0 mg/kg/injection, schedule: Q01DX009 (ip), vehicle: saline with Tween-80 91 % of control | dose: 170.0 mg/kg/injection, schedule: Q01DX009 (ip), vehicle: saline with Tween-80 93 % of control | dose: 177.0 mg/kg/injection, schedule: Q01DX009 (ip), vehicle: saline with Tween-80 123 % of control | dose: 400.0 mg/kg/injection, schedule: Q01DX009 (ip), vehicle: saline with Tween-80 120 % of control

C1C[S][Hg][S]CCO1
inactive: dose: 6.25 mg/kg/injection, schedule: Q01DX009 (ip), vehicle: suspension in saline 105 % of control | dose: 12.5 mg/kg/injection, schedule: Q01DX009 (ip), vehicle: suspension in saline 102 % of control

COc1ccc(OC)c(NC(=O)Nc2nccs2)c1
inactive: dose: 22.5 mg/kg/injection, schedule: Q01DX009 (ip), vehicle: Klucel (hydroxypropylcellulose) (HPC) 99 % of control | dose: 45.0 mg/kg/injection, schedule: Q01DX009 (ip), vehicle: Klucel (hydroxypropylcellulose) (HPC) 100 % of control | dose: 90.0 mg/kg/injection, schedule: Q01DX009 (ip), vehicle: Klucel (hydroxypropylcellulose) (HPC) 97 % of control | dose: 180.0 mg/kg/injection, schedule: Q01DX009 (ip), vehicle: Klucel (hydroxypropylcellulose) (HPC) 92 % of control

C=CCC1C/C=C\COC(=O)CC(C)(C)CC1=O (stereo not given)
inactive: dose: 25.0 mg/kg/injection, schedule: Q04DX003 (ip), vehicle: saline 100 % of control | dose: 50.0 mg/kg/injection, schedule: Q04DX003 (ip), vehicle: saline 102 % of control | dose: 100.0 mg/kg/injection, schedule: Q04DX003 (ip), vehicle: saline 102 % of control | dose: 400.0 mg/kg/injection, schedule: Q04DX003 (ip), vehicle: saline 99 % of control

CC(O)CNC1=C(Cl)C(=O)c2ccccc2C1=O (stereo not given)
inactive: dose: 12.5 mg/kg/injection, schedule: Q01DX009 (ip), vehicle: distilled water + Tween-80 100 % of control | dose: 25.0 mg/kg/injection, schedule: Q01DX009 (ip), vehicle: distilled water + Tween-80 103 % of control | dose: 50.0 mg/kg/injection, schedule: Q01DX009 (ip), vehicle: distilled water + Tween-80 100 % of control | dose: 100.0 mg/kg/injection, schedule: Q01DX009 (ip), vehicle: distilled water + Tween-80 98 % of control | dose: 200.0 mg/kg/injection, schedule: Q01DX009 (ip), vehicle: distilled water + Tween-80 92 % of control

Cc1ccc(N2C(=O)CC3(CCCC3)C2=O)cc1[N+](=O)[O-]
inactive: dose: 100.0 mg/kg/injection, schedule: Q04DX002 (ip), vehicle: Klucel (hydroxypropylcellulose) (HPC) 106 % of control | dose: 200.0 mg/kg/injection, schedule: Q04DX002 (ip), vehicle: Klucel (hydroxypropylcellulose) (HPC) 105 % of control | dose: 400.0 mg/kg/injection, schedule: Q04DX002 (ip), vehicle: Klucel (hydroxypropylcellulose) (HPC) 97 % of control

COC(=O)/C(=C/Cl)NC(C)=O
inactive: dose: 12.5 mg/kg/injection, schedule: Q01DX001 (ip), vehicle: suspension in saline 91 % of control | dose: 25.0 mg/kg/injection, schedule: Q01DX001 (ip), vehicle: suspension in saline 99 % of control | dose: 50.0 mg/kg/injection, schedule: Q01DX001 (ip), vehicle: suspension in saline 92 % of control | dose: 200.0 mg/kg/injection, schedule: Q01DX001 (ip), vehicle: suspension in saline 98 % of control

C=CS(=O)(=O)c1ccc(C)cc1
inactive: dose: 1.56 mg/kg/injection, schedule: Q01DX009 (ip), vehicle: Klucel (hydroxypropylcellulose) (HPC) 104 % of control | dose: 3.13 mg/kg/injection, schedule: Q01DX009 (ip), vehicle: Klucel (hydroxypropylcellulose) (HPC) 99 % of control and 105 % of control | dose: 6.25 mg/kg/injection, schedule: Q01DX009 (ip), vehicle: Klucel (hydroxypropylcellulose) (HPC) 121 % of control and 95 % of control | [9] 99 % of control and 111 % of control

N=c1c2ncn(C3OC(COP(=O)(O)O)C(O)C3O)c2ncn1O (stereo not given)
inactive: [7] 97 % of control | dose: 100.0 mg/kg/injection, schedule: Q01DX009 (ip), vehicle: saline 97 % of control | [8] 95 % of control | dose: 400.0 mg/kg/injection, schedule: Q01DX009 (ip), vehicle: saline 97 % of control
